Results on 32 compounds are retold here after patent US12234221B2, “Pyridine carboxamide compounds for inhibiting NAV1.8” (Lieber Institute, Inc., priority 2018, dated 2025).

The target of assay [1] is T1, human Nav1.8 (hNav1.8) ion channel (Homo sapiens, UniProt Q9Y5Y9).
T1 construct: expressed in transfected cells; host or cells: HEK293
The assay is described as follows: Nav1.8 channel inhibition, estimated IC50 (one or more of: fluorescence inhibition assay, PatchXpress, IonFlux HT automated patch clamp). It counts as cell-based. The conditions noted are these: HEK293 cells stably expressing hNav1.8; method used per compound not stated; read-out: Activity range (estimated IC50). The method, boiled down:
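HEK293 cells stably expressing hNav1.8 with β1/β2 subunits; IC50 from the fluorescence assay and/or automated whole-cell patch clamp (PatchXpress, IonFlux HT). Fluorescence: ANG-2 Na dye, 5 min compound preincubation (0.02–5 μM, 1% DMSO) with 30 μM ouabain, stimulation by 10 μM deltamethrin, peak signal fit logistically. PatchXpress: holding potential reset to Vhalf, inhibition normalized to control/washout currents.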

Assay [2] concerns Nav 1.8. As to conditions: PTHS models (ex vivo cell model, rodent models); cited from earlier work.

T1 sequence (Q9Y5Y9 whole entry): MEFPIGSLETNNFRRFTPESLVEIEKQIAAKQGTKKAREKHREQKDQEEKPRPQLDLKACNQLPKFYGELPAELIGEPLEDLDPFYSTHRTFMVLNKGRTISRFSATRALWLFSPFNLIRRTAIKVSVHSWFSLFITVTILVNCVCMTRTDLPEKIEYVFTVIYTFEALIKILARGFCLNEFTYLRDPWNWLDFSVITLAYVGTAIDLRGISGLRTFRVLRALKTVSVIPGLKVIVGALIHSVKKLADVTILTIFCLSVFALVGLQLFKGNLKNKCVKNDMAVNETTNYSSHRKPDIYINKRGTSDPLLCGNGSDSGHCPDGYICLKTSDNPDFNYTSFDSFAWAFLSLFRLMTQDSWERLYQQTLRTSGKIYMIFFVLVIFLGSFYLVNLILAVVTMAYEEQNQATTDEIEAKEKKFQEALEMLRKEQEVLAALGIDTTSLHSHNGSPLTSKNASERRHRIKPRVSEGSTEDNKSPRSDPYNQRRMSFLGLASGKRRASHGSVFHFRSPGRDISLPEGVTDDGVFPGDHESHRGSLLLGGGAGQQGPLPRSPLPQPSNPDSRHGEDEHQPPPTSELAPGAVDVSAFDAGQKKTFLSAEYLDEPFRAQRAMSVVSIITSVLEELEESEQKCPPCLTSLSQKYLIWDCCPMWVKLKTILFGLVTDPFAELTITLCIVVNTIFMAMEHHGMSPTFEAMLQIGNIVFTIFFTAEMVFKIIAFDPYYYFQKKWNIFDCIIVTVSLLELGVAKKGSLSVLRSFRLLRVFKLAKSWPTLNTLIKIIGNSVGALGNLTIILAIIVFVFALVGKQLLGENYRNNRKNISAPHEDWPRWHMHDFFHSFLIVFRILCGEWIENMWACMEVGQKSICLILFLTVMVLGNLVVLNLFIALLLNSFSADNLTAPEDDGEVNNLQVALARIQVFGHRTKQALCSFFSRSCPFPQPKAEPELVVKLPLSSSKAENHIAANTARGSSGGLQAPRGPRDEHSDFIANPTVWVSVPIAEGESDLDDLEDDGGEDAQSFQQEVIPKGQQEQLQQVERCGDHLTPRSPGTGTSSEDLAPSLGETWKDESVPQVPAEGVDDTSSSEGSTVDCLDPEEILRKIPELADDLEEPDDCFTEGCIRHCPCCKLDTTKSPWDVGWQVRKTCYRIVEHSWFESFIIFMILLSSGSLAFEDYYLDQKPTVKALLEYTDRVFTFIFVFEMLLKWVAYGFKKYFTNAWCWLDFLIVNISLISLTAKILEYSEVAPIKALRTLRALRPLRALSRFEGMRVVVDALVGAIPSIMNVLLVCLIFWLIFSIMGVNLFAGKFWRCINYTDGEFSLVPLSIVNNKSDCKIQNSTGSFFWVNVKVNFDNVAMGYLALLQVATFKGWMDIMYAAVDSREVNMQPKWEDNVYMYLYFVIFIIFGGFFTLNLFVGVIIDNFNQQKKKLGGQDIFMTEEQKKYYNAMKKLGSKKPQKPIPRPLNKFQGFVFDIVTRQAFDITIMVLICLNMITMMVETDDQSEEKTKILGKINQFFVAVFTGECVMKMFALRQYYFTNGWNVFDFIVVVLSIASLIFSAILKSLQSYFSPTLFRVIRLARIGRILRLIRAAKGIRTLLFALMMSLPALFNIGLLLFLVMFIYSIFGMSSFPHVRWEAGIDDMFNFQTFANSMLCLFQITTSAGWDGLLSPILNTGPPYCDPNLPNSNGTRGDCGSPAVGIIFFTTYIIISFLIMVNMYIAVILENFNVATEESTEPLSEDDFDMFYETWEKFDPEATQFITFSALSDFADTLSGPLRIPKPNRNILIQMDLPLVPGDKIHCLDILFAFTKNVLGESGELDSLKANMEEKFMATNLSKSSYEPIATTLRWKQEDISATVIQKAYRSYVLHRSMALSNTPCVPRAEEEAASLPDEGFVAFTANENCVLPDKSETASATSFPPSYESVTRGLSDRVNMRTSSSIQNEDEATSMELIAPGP

With `NC(=O)c1cccc(NC(=O)c2cc(C(F)(F)F)cnc2Oc2ccc(OC(F)(F)F)cc2Cl)c1` [Example 148, N-(3-carbamoylphenyl)-2-[2-chloro-4-(trifluoromethoxy)phenoxy]-5-(trifluoromethyl)pyridine-3-carboxamide], the IC50 (usually the concentration needed to halve the response being measured) in assay [1] was 500 to 1000 nM.
Regarding `CC(=O)c1cccc(NC(=O)c2cc(C(F)(F)F)cnc2Oc2ccc(OC(F)(F)F)cc2Cl)c1` [Example 149, N-(3-acetylphenyl)-2-[2-chloro-4-(trifluoromethoxy)phenoxy]-5-(trifluoromethyl)pyridine-3-carboxamide], the half-inhibitory concentration (IC50) in assay [1] is > 1000 nM.
With `Cn1ccc(NC(=O)c2cc(C(F)(F)F)cnc2Oc2ccc(OC(F)(F)F)cc2Cl)cc1=O` [Example 150, 2-[2-chloro-4-(trifluoromethoxy)phenoxy]-N-(1-methyl-2-oxo-4-pyridyl)-5-(trifluoromethyl)pyridine-3-carboxamide], the IC50 in assay [1] was < 500 nM.
`CN(C)C(=O)c1cccc(NC(=O)c2cc(C(F)(F)F)cnc2Oc2ccc(OC(F)(F)F)cc2Cl)c1` [Example 151, 2-[2-chloro-4-(trifluoromethoxy)phenoxy]-N-[3-(dimethylcarbamoyl)phenyl]-5-(trifluoromethyl)pyridine-3-carboxamide]: the IC50 in assay [1] was < 500 nM.
Turning to `CS(=O)(=O)c1ccc(NC(=O)c2cc(C(F)(F)F)cnc2Oc2ccc(OC(F)(F)F)cc2Cl)cc1` [Example 152, 2-[2-chloro-4-(trifluoromethoxy)phenoxy]-N-(4-methylsulfonylphenyl)-5-(trifluoromethyl)pyridine-3-carboxamide], the half-maximal inhibitory concentration (IC50) in assay [1] was < 500 nM.
Consider `CN(C)S(=O)(=O)c1cccc(NC(=O)c2cc(C(F)(F)F)cnc2Oc2ccc(OC(F)(F)F)cc2Cl)c1` [Example 154, 2-[2-chloro-4-(trifluoromethoxy)phenoxy]-N-[3-(dimethylsulfamoyl)phenyl]-5-(trifluoromethyl)pyridine-3-carboxamide], for which, in assay [1], the IC50 is > 1000 nM.
For `O=C(Nc1ccc(F)c(F)c1)c1cc(C(F)(F)F)cnc1Oc1ccc(OC(F)(F)F)cc1Cl` [Example 155, 2-[2-chloro-4-(trifluoromethoxy)phenoxy]-N-(3,4-difluorophenyl)-5-(trifluoromethyl)pyridine-3-carboxamide], the IC50 in assay [1] was < 500 nM.
Regarding `COc1ccc(NC(=O)c2cc(C(F)(F)F)cnc2Oc2ccc(OC(F)(F)F)cc2Cl)cn1` [Example 156, 2-[2-chloro-4-(trifluoromethoxy)phenoxy]-N-(6-methoxy-3-pyridyl)-5-(trifluoromethyl)pyridine-3-carboxamide], the IC50 in assay [1] was 500 to 1000 nM.
Same read-out and setting: the value for `O=C(Nc1cncnc1)c1cc(C(F)(F)F)cnc1Oc1ccc(OC(F)(F)F)cc1Cl` [Example 157, 2-[2-chloro-4-(trifluoromethoxy)phenoxy]-N-pyrimidin-5-yl-5-(trifluoromethyl)pyridine-3-carboxamide] was 500 to 1000 nM; that for `O=C(Nc1cccc(CO)c1)c1cc(C(F)(F)F)cnc1Oc1ccc(OC(F)(F)F)cc1Cl` [Example 160, 2-[2-chloro-4-(trifluoromethoxy)phenoxy]-N-[3-(hydroxymethyl)phenyl]-5-(trifluoromethyl)pyridine-3-carboxamide] was < 500 nM; that for `O=C(Nc1ccnnc1)c1cc(C(F)(F)F)cnc1Oc1ccc(OC(F)(F)F)cc1Cl` [Example 161, 2-[2-chloro-4-(trifluoromethoxy)phenoxy]-N-pyridazin-4-yl-5-(trifluoromethyl)pyridine-3-carboxamide] was < 500 nM.
For `CS(=O)(=O)c1ccc(F)c(NC(=O)c2cc(C(F)(F)F)cnc2Oc2ccc(OC(F)(F)F)cc2Cl)c1` [Example 162, 2-[2-chloro-4-(trifluoromethoxy)phenoxy]-N-(2-fluoro-5-methylsulfonyl-phenyl)-5-(trifluoromethyl)pyridine-3-carboxamide], the 50% inhibitory concentration (IC50) in assay [1] is < 500 nM.
Still for that read-out and setting: next, `O=C(Nc1cccc(F)c1)c1cc(C(F)(F)F)cnc1Oc1ccc(OC(F)(F)F)cc1Cl` [Example 163, 2-[2-chloro-4-(trifluoromethoxy)phenoxy]-N-(3-fluorophenyl)-5-(trifluoromethyl)pyridine-3-carboxamide]: > 1000 nM.
Turning to `Cc1cc(NC(=O)c2cc(C(F)(F)F)cnc2Oc2ccc(OC(F)(F)F)cc2Cl)ccn1` [Example 164, 2-[2-chloro-4-(trifluoromethoxy)phenoxy]-N-(2-methyl-4-pyridyl)-5-(trifluoromethyl)pyridine-3-carboxamide], the half-inhibitory concentration (IC50) in assay [1] was < 500 nM.
On to `O=C(Nc1ccnc(F)c1)c1cc(C(F)(F)F)cnc1Oc1ccc(OC(F)(F)F)cc1Cl` [Example 165, 2-[2-chloro-4-(trifluoromethoxy)phenoxy]-N-(2-fluoro-4-pyridyl)-5-(trifluoromethyl)pyridine-3-carboxamide], for which the IC50 in assay [1] was < 500 nM.
Same read-out and setting: the value for `O=C(Nc1cnns1)c1cc(C(F)(F)F)cnc1Oc1ccc(OC(F)(F)F)cc1Cl` [Example 166, 2-[2-chloro-4-(trifluoromethoxy)phenoxy]-N-(thiadiazol-5-yl)-5-(trifluoromethyl)pyridine-3-carboxamide] was 500 to 1000 nM.
The same measure, in the same setting: the value for `Cn1nccc1NC(=O)c1cc(C(F)(F)F)cnc1Oc1ccc(OC(F)(F)F)cc1Cl` [Example 167, 2-[2-chloro-4-(trifluoromethoxy)phenoxy]-N-(2-methylpyrazol-3-yl)-5-(trifluoromethyl)pyridine-3-carboxamide] was 500 to 1000 nM; that for `Cc1ccc(S(C)(=O)=O)cc1NC(=O)c1cc(C(F)(F)F)cnc1Oc1ccc(OC(F)(F)F)cc1Cl` [Example 168, 2-[2-chloro-4-(trifluoromethoxy)phenoxy]-N-(2-methyl-5-methylsulfonyl-phenyl)-5-(trifluoromethyl)pyridine-3-carboxamide] was 500 to 1000 nM.
The same measure, in the same setting: next, `Cn1ncnc1NC(=O)c1cc(C(F)(F)F)cnc1Oc1ccc(OC(F)(F)F)cc1Cl` [Example 169, 2-[2-chloro-4-(trifluoromethoxy)phenoxy]-N-(2-methyl-1,2,4-triazol-3-yl)-5-(trifluoromethyl)pyridine-3-carboxamide]: > 1000 nM; `Cn1cnc(NC(=O)c2cc(C(F)(F)F)cnc2Oc2ccc(OC(F)(F)F)cc2Cl)n1` [Example 170, 2-[2-chloro-4-(trifluoromethoxy)phenoxy]-N-(1-methyl-1,2,4-triazol-3-yl)-5-(trifluoromethyl)pyridine-3-carboxamide]: > 1000 nM.
For `CN=S(C)(=O)c1cccc(NC(=O)c2cc(C(F)(F)F)cnc2Oc2ccc(OC)cc2OC)c1` (centres unmarked) [Example 171, 2-(2,4-dimethoxyphenoxy)-N-[3-(N,S-dimethylsulfonimidoyl)phenyl]-5-(trifluoromethyl)pyridine-3-carboxamide], the IC50 in assay [1] is < 500 nM.
The same measure, in the same setting: next, `COc1ccc(Oc2ncc(C(F)(F)F)cc2C(=O)Nc2cccc(S(C)(=N)=O)c2)c(OC)c1` (centres unmarked) [Example 172, 2-(2,4-dimethoxyphenoxy)-N-[3(methylsulfonimidoyl)phenyl]-5-(trifluoromethyl)pyridine-3-carboxamide]: < 500 nM; `COc1ccc(Oc2ncc(C(F)(F)F)cc2C(=O)Nc2ccnnc2)c(OC)c1` [Example 173, 2-(2,4-dimethoxyphenoxy)-N-pyridazin-4-yl-5-(trifluoromethyl)pyridine-3-carboxamide]: > 1000 nM; `CS(=N)(=O)c1cccc(NC(=O)c2cc(C(F)(F)F)cnc2Oc2ccc(F)cc2F)c1` (centres unmarked) [Example 174, 2-(2,4-difluorophenoxy)-N-[3-(methylsulfonimidoyl)phenyl]-5-(trifluoromethyl)pyridine-3-carboxamide]: < 500 nM.
The same measure, in the same setting: next, `CN=S(C)(=O)c1cccc(NC(=O)c2cc(C(F)(F)F)cnc2Oc2ccc(F)cc2F)c1` (centres unmarked) [Example 175, 2-(2,4-difluorophenoxy)-N-[3-(N,S-dimethylsulfonimidoyl)phenyl]-5(trifluoromethyl)pyridine-3-carboxamide]: < 500 nM; `O=C(Nc1ccnnc1)c1cc(C(F)(F)F)cnc1Oc1ccc(F)cc1F` [Example 176, 2-(2,4-difluorophenoxy)-N-pyridazin-4-yl-5-(trifluoromethyl)pyridine-3-carboxamide]: > 1000 nM.
Still for that read-out and setting: next, `COc1cc(F)ccc1Oc1nc(C)c(C#N)cc1C(=O)Nc1cccc(S(C)(=O)=O)c1` [Example 177, 5-cyano-2-(4-fluoro-2-methoxy-phenoxy)-6-methyl-N-(3-methylsulfonylphenyl)pyridine-3-carboxamide]: 500 to 1000 nM.
As for `COc1cc(F)ccc1Oc1nc(OC)c(F)cc1C(=O)Nc1cccc(S(C)(=O)=O)c1` [Example 178, 5-fluoro-2-(4-fluoro-2-methoxy-phenoxy)-6-methoxy-N-(3-methylsulfonylphenyl)pyridine-3-carboxamide], in assay [1], the IC50 is < 500 nM.
On the same count and under the same terms, the value for `COc1cc(F)ccc1Oc1ncc(OC(F)F)cc1C(=O)Nc1cccc(S(C)(=O)=O)c1` [Example 179, 5-(difluoromethoxy)-2-(4-fluoro-2-methoxy-phenoxy)-N-(3-methylsulfonylphenyl)pyridine-3-carboxamide] was < 500 nM; that for `CS(=O)(=O)c1cccc(NC(=O)c2cc([N+](=O)[O-])cnc2Oc2ccc(OC(F)(F)F)cc2)c1` [Example 180, N-(3-methylsulfonylphenyl)-5-nitro-2-[4-(trifluoromethoxy)phenoxy]pyridine-3-carboxamide] was < 500 nM.
Take `CS(=O)(=O)c1cccc(NC(=O)c2cc(Cl)cnc2Oc2ccc(OC(F)(F)F)cc2)c1` [Example 181, 5-chloro-N-(3-methylsulfonylphenyl)-2-[4-(trifluoromethoxy)phenoxy]pyridine-3-carboxamide]: the half-maximal inhibitory concentration (IC50) in assay [1] is < 500 nM.
In the case of `COc1cc(NC(=O)c2ccc(-c3ccc(Cl)cc3)o2)cc(OC)c1` [Example A-803467, 5-4(-chlorophenyl)-N-(3,5-dimethoxyphenyl)furan-2-carboxamide], in assay [2], the “effect on excitability phenotypes” value is recorded as “can rapidly reverse some of the excitability phenotypes”.
